# US6951733B2, “Method for testing drug susceptibility of Mycobacterium tuberculosis” (priority 2000, dated 2005)
# Like-named read-outs stand apart in the source and are kept apart here.
# Experiments:
# [1] = tested on: 13 M. tuberculosis pan-susceptible strains; experiment: MIC determination on HSTB agar, susceptible strains; type: cell-based; conditions: for MIC: Mycobacterium tuberculosis, HSTB agar
# [2] = tested on: 55 M. tuberculosis clinical isolates; type: cell-based
# [3] = tested on: 13 M. tuberculosis pan-susceptible strains; conditions: adopted for 7H11 agar; cited from earlier work
# [4] = strains Susceptible by the BACTEC 300 μg/ml
# [5] = strains Susceptible by the BACTEC 900 μg/ml
structure (smiles),measurement,setting,value
"NNC(=O)c1ccncc1 [INH, isoniazid]",MIC,"[1]; 0.2: 13 strains, read-out: MICs (mcg/ml) of INH for 13 Susceptible Strains, HSTB",0.2 µg/mL
same,MIC,"[1]; all 13 strains, read-out: MIC of INH",0.2 µg/mL
"NC(=O)c1cnccn1 [PZA, pyrazinamide]","Number of strains by the agar proportion method, 900 μg/ml Susceptible",[2]; [4],25
same,"Number of strains by the agar proportion method, 1200 μg/ml Susceptible",[2]; [4],25
same,"Number of strains by the agar proportion method, 900 μg/ml Susceptible",[2]; [5],26
same,"Number of strains by the agar proportion method, 1200 μg/ml Susceptible",[2]; [5],27
"CO[C@H]1/C=C/O[C@@]2(C)Oc3c(C)c(O)c4c(O)c(c(/C=N/N5CCN(C)CC5)c(O)c4c3C2=O)NC(=O)/C(C)=C\C=C\[C@H](C)[C@H](O)[C@@H](C)[C@@H](O)[C@@H](C)[C@H](OC(C)=O)[C@@H]1C [RMP, rifampin]",critical concentration of RMP,[1],2.0 µg/mL
same,critical concentration of RMP,[3],1.0 µg/mL
